Format in all cases: biochemical
Holding throughout (details): recombinant enzyme, 37° C. for 2 hours

One test deals with EGFR del19 (Homo sapiens (Human), UniProt P00533, DEL746-750). Put plainly: HTRF inhibitory activity against EGFR mutant enzyme (EGFR del19). On the procedure:
(§1) The activity of the compounds of the present invention against EGFR mutant enzymes was measured using the HTRF system purchased from Cisbio as follows. For an EGFR mutant enzyme, the EGFR del19 enzyme was a recombinant protein purchased from Carna Biosciences, and the EGFR A763_Y764insFHEA enzyme was a recombinant protein purchased from SignalChem, respectively.
(§2) The composition of the assay buffer used for activity measurement was 50 mM tris-HCl pH 7.5, 100 mM NaCl, 7.5 mM MgCl2, 3 mM KCl, 0.01% tween 20, 0.1% BSA, and 1 mM DTT. An enzymatic reaction was performed using a peptide substrate labeled with ATP at a concentration of […] and biotin at a concentration of […]. The analysis of the inhibitory effect of the compounds on EGFR activity was performed according to the following method. • Component 1:4 μL of EGFR mutant enzyme • Component 2:2 μL of compound solution • Component 3:4 μL of ATP and a biotin labeled peptide
(§3) The enzyme reaction begins by first mixing component 1 and component 2 and then adding component 3 thereto. After the reaction at 37° C. for 2 hours, […] of a measurement solution consisting of streptavidin-XL665 and a europium-labeled anti-phosphotyrosine antibody purchased from Cisbio was added to the enzyme reaction solution and reacted at room temperature for 1 hour. Finally, the ratio of fluorescence values at 615 nm and 665 nm was measured using Perkin-Elmer's Envision instrument to calculate enzyme activity and confirm the inhibitory ability of the compounds. The measured values at 7 compound concentrations were analyzed using the Prism program (version 5.01, Graphpad Software, Inc.), and the IC50 (μM) values, which are measures of the compounds' inhibitory activity, were calculated.
Background: Time-resolved FRET reads energy transfer from a long-lived donor to a nearby acceptor.

Another test deals with EGFR A763_Y764insFHEA (Homo sapiens (Human), UniProt P00533, INS763FHEA). Put plainly: HTRF inhibitory activity against EGFR mutant enzyme (EGFR A763_Y764insFHEA). On the procedure:
as §1, §2, §3

In a further test the target is HER2 A775_G776insYVMA (Homo sapiens (Human), UniProt P04626, INS775YVMA). Put plainly: HTRF inhibitory activity against HER2 mutant enzyme. On the procedure:
The activity of the compounds of the present invention against HER mutant enzymes was measured using the HTRF system purchased by Cisbio as follows. As a HER2 mutant enzyme, the HER2 A775_G776insYVMA mutant enzyme was used by purchasing a recombinant protein provided by Carna Biosciences.
as §2, with “mM DTT. In addition thereto, the enzymatic reaction” for “mM DTT. An enzymatic reaction”, “of the activity inhibitory effect” for “of the inhibitory effect”, “compounds on HER2 A775_G776insYVMA mutation was performed” for “compounds on EGFR activity was performed”, “μL of HER2 A775_G776insYVMA mutant enzyme” for “μL of EGFR mutant enzyme”
as §3, with “Finally, the ratio of fluorescence values at 615 nm and 665 nm was measured using Perkin-Elmer's Envision instrument to calculate enzyme activity and confirm the inhibitory ability of the compounds.” left out, “ability,” for “activity,”

Data on 16 compounds can be found in patent US20240343694A1, “PYRIMIDINE DERIVATIVE, METHOD FOR PREPARING SAME, AND PHARMACEUTICAL COMPOSITION FOR PREVENTING OR TREATING CANCER COMPRISING SAME AS ACTIVE INGREDIENT” (KOREA RESERARCH INSTITUTE OF CHEMICAL TECHNOLOGY, priority 2021, published 2024).

For orientation: IC50 means the concentration at which inhibition is half-maximal.

EGFR A763_Y764insFHEA, sequence (P00533 other isoform, or with tags, fused parts or gaps del 1-694/ins FHEA behind 763 limits assumed): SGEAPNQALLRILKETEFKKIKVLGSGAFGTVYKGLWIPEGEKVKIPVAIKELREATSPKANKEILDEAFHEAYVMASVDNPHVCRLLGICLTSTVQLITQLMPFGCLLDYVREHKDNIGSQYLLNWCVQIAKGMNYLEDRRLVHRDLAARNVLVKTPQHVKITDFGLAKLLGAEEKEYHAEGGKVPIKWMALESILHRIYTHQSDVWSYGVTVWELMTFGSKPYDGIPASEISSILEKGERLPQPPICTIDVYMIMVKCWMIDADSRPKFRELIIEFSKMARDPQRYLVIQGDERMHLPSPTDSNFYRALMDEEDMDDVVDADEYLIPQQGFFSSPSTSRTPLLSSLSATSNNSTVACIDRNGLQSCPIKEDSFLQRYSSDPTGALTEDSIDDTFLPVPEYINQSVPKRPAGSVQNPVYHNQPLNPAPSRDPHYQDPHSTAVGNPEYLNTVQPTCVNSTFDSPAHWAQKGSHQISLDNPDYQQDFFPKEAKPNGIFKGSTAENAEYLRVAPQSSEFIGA
EGFR del19, sequence (P00533 other isoform, or with tags, fused parts or gaps del 1-668/del 746-750 limits assumed): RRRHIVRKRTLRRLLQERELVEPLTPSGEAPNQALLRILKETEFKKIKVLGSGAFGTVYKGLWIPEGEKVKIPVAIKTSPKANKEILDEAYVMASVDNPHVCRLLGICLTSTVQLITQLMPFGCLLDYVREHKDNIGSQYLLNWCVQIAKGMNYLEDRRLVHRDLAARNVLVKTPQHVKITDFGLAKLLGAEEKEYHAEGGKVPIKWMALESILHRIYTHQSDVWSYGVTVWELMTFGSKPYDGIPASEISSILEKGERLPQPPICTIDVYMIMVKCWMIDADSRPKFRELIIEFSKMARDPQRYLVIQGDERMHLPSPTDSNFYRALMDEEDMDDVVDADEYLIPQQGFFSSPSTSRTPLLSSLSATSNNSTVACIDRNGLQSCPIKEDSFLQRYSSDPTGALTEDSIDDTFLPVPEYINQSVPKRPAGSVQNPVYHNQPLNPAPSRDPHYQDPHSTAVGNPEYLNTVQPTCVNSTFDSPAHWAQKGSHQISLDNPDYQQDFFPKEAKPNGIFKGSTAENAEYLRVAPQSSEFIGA
HER2 A775_G776insYVMA, sequence (P04626 other isoform, or with tags, fused parts or gaps del 1-675/ins YVMA behind 775 limits assumed): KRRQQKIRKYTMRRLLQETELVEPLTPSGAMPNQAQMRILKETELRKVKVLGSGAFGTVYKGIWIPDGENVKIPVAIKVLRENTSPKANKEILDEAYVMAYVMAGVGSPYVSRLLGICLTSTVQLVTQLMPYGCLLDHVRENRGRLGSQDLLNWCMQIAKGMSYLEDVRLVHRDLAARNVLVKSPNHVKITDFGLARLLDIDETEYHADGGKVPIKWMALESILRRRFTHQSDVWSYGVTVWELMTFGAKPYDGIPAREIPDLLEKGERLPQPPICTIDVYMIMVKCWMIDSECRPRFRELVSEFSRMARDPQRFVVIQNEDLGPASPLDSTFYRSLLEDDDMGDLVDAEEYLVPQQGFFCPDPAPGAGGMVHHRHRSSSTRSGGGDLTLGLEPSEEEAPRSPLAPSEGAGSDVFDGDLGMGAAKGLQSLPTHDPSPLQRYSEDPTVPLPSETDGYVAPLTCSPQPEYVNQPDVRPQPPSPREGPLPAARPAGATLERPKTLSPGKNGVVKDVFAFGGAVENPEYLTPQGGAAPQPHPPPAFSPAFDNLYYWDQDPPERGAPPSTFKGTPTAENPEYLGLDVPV

Take `C=CC(=O)Nc1cc(Nc2ncc(Cl)c(Nc3cccc(CC)c3NS(=O)(=O)CC)n2)c(OC)cc1N(C)CCN(C)C` [Example 42, N-(5-((5-chloro-4-((3-ethyl-2-(ethylsulfonamido)phenyl)amino)pyrimidin-2-yl)amino)-2-((2-(dimethylamino)ethyl)(methyl)amino)-4-methoxyphenyl)acrylamide]: the concentration for half-maximal inhibition (IC50) at EGFR del19 is under 1 nM; on EGFR A763_Y764insFHEA, under 1 nM; at HER2 A775_G776insYVMA, 6 nM.

Regarding `C=CC(=O)Nc1cc(Nc2ncc(Cl)c(Nc3ccc(C)c(C)c3NS(C)(=O)=O)n2)c(OC)cc1N(C)CCN(C)C` [Example 44, N-(5-((5-chloro-4-((3,4-dimethyl-2-(methylsulfonamido)phenyl)amino)pyrimidin-2-yl)amino)-2-((2-(dimethylamino)ethyl)(methyl)amino)-4-methoxyphenyl)acrylamide], the half-maximal inhibitory concentration (IC50) is under 1 nM at EGFR del19, under 1 nM on EGFR A763_Y764insFHEA and 6 nM at HER2 A775_G776insYVMA.

For `C=CC(=O)Nc1cc(Nc2ncc(C(=O)OC)c(Nc3cccc4c3N(S(C)(=O)=O)CCC4)n2)c(OC)cc1N(C)CCN(C)C` [Example 51, methyl 2-((5-acrylamido-4-((2-(dimethylamino)ethyl)(methyl)amino)-2-methoxyphenyl)amino)-4-((1-(methylsulfonyl)-1,2,3,4-tetrahydroquinolin-8-yl)amino)pyrimidin-5-carboxylate], the figures for the IC50 on EGFR del19, at EGFR A763_Y764insFHEA and at HER2 A775_G776insYVMA were under 1 nM, under 1 nM and 30 nM, respectively.

As for `C=CC(=O)Nc1cc(Nc2ncc(C(=O)OC(C)C)c(Nc3cccc4c3N(S(C)(=O)=O)CCC4)n2)c(OC)cc1N(C)CCN(C)C` [Example 52, isopropyl 2-((5-acrylamido-4-((2-(dimethylamino)ethyl)(methyl)amino)-2-methoxyphenyl)amino)-4-((1-(methylsulfonyl)-1,2,3,4-tetrahydroquinolin-8-yl)amino)pyrimidin-5-carboxylate], the IC50 at EGFR del19 was under 1 nM; at EGFR A763_Y764insFHEA, under 1 nM; on HER2 A775_G776insYVMA it was 4 nM.

For `C=C(F)C(=O)Nc1cc(Nc2ncc(Cl)c(Nc3cccc4c3N(S(C)(=O)=O)CCC4)n2)c(OC)cc1N(C)CCN(C)C` [Example 54, N-(5-((5-chloro-4-((1-(methylsulfonyl)-1,2,3,4-tetrahydroquinolin-8-yl)amino)pyrimidin-2-yl)amino)-2-((2-(dimethylamino)ethyl)(methyl)amino)-4-methoxyphenyl)-2-fluoroacrylamide], the concentration for half-maximal inhibition (IC50) on EGFR del19 was under 1 nM; at EGFR A763_Y764insFHEA, under 1 nM; on HER2 A775_G776insYVMA, 10 nM.

On to `C=CC(=O)Nc1cc(Nc2ncc(C(=O)OC)c(Nc3cccc4c3N(S(C)(=O)=O)CC4)n2)c(OC)cc1N(C)CCN(C)C` [Example 60, methyl 2-((5-acrylamido-4-((2-(dimethylamino)ethyl)(methyl)amino)-2-methoxyphenyl)amino)-4-((1-(methylsulfonyl)indolin-7-yl)amino)pyrimidin-5-carboxylate], for which the figures for the IC50 on EGFR del19, on EGFR A763_Y764insFHEA and on HER2 A775_G776insYVMA were under 1 nM, under 1 nM and 10 nM, respectively.

For the compound `C=CC(=O)Nc1cc(Nc2ncc(Cl)c(Nc3cccc4ccn(S(C)(=O)=O)c34)n2)c(OC)cc1N(C)CCN(C)C` [Example 67, N-(5-((5-chloro-4-((1-(methylsulfonyl)-1H-indol-7-yl)amino)pyrimidin-2-yl)amino)-2-((2-(dimethylamino)ethyl)(methyl)amino)-4-methoxyphenyl)acrylamide], the IC50 on EGFR del19 was under 1 nM; on EGFR A763_Y764insFHEA it was under 1 nM; on HER2 A775_G776insYVMA, 81 nM.

Take `C=CC(=O)Nc1cc(Nc2ncc(Cl)c(Nc3ccc4nccnc4c3N(C)S(C)(=O)=O)n2)c(OC)cc1N(C)CCN(C)C` [Example 68, N-(5-((5-chloro-4-((5-(N-methylmethylsulfonamido)quinoxalin-6-yl)amino)pyrimidin-2-yl)amino)-2-((2-(dimethylamino)ethyl)(methyl)amino)-4-methoxyphenyl)acrylamide]: the figures for the IC50 on EGFR del19, on EGFR A763_Y764insFHEA and at HER2 A775_G776insYVMA were under 1 nM, under 1 nM and 6 nM, respectively.

For `C=CC(=O)Nc1cc(Nc2ncc(Cl)c(Nc3ccc4nccnc4c3NS(C)(=O)=O)n2)c(OC)cc1N(C)CCN(C)C` [Example 69], the IC50 on EGFR del19 was under 1 nM; on EGFR A763_Y764insFHEA, under 1 nM; on HER2 A775_G776insYVMA it was 6 nM.

As to `C=CC(=O)Nc1cc(Nc2ncc(Cl)c(Nc3ccccc3N3CCCS3(=O)=O)n2)c(OC)cc1N(C)CCN(C)C` [Example 70, N-(5-((5-chloro-4-((2-(1,1-dioxidoisothiazolidin-2-yl)phenyl)amino)pyrimidin-2-yl)amino)-2-((2-(dimethylamino)ethyl)(methyl)amino)-4-methoxyphenyl)acrylamide], the IC50 was under 1 nM at EGFR del19, 4 nM at EGFR A763_Y764insFHEA and 33 nM at HER2 A775_G776insYVMA.

As for `C=CC(=O)Nc1cc(Nc2ncc(Cl)c(Nc3ccccc3N3CCCCS3(=O)=O)n2)c(OC)cc1N(C)CCN(C)C` [Example 71, N-(5-((5-chloro-4-((2-(1,1-dioxido-1,2-thiazinan-2-yl)phenyl)amino)pyrimidin-2-yl)amino)-2-((2-(dimethylamino)ethyl)(methyl)amino)-4-methoxyphenyl)acrylamide], the results for the IC50 at EGFR del19, at EGFR A763_Y764insFHEA and at HER2 A775_G776insYVMA were under 1 nM, 5 nM and 61 nM, respectively.

Take `C=CC(=O)Nc1cc(Nc2ncc(Cl)c(Nc3cccc4c3N(S(C)(=O)=O)CC4)n2)c(OC)cc1N(C)CCN1CCN(C)CC1` [Example 73, N-(5-((5-chloro-4-((1-(methylsulfonyl)indolin-7-yl)amino)pyrimidin-2-yl)amino)-4-methoxy-2-(methyl(2-(4-methylpiperazin-1-yl)ethyl)amino)phenyl)acrylamide]: the IC50 on EGFR del19 was under 1 nM; on EGFR A763_Y764insFHEA, under 1 nM; on HER2 A775_G776insYVMA, 5 nM.

For `C=CC(=O)Nc1cc(Nc2ncc(Cl)c(Nc3cccc4c3N(S(=O)(=O)CC)CC4)n2)c(OC)cc1N(C)CCN1CCCC1` [Example 75, N-(5-((5-chloro-4-((1-(ethylsulfonyl)indolin-7-yl)amino)pyrimidin-2-yl)amino)-4-methoxy-2-(methyl(2-(pyrrolidin-1-yl)ethyl)amino)phenyl)acrylamide], the results for the IC50 at EGFR del19, on EGFR A763_Y764insFHEA and on HER2 A775_G776insYVMA were under 1 nM, under 1 nM and 3 nM, respectively.

Consider `C=CC(=O)Nc1cc(Nc2ncc(Cl)c(Nc3cccc4c3N(S(C)(=O)=O)CC4)n2)c(OC)cc1OCCN1CCOCC1` [Example 77, N-(5-((5-chloro-4-((1-(methylsulfonyl)indolin-7-yl)amino)pyrimidin-2-yl)amino)-4-methoxy-2-(2-morpholinoethoxy)phenyl)acrylamide], for which the IC50 on EGFR del19 was under 1 nM; at EGFR A763_Y764insFHEA, under 1 nM; at HER2 A775_G776insYVMA, 2 nM.

For the compound `C=CC(=O)Nc1cc(Nc2ncc(Cl)c(Nc3cccc4c3N(S(C)(=O)=O)CC4)n2)c(OC)cc1OCCN1CCCCC1` [Example 78, N-(5-((5-chloro-4-((1-(methylsulfonyl)indolin-7-yl)amino)pyrimidin-2-yl)amino)-4-methoxy-2-(2-(piperidin-1-yl)ethoxy)phenyl)acrylamide], the IC50 at EGFR del19 was under 1 nM; at EGFR A763_Y764insFHEA, under 1 nM; at HER2 A775_G776insYVMA, 3 nM.

`C=CC(=O)Nc1cc(Nc2ncc(Cl)c(Nc3cccc4c3N(S(=O)(=O)CC)CC4)n2)c(OC)cc1N(C)CCN1CCC1` [Example 81, N-(2-((2-(azetidin-1-yl)ethyl)(methyl)amino)-5-((5-chloro-4-((1-(ethylsulfonyl)indolin-7-yl)amino)pyrimidin-2-yl)amino)-4-methoxyphenyl)acrylamide]: the IC50 on EGFR del19, at EGFR A763_Y764insFHEA and at HER2 A775_G776insYVMA was under 1 nM each time.
